Patent US20070010671A1, “Novel quinazoline derivatives and methods of treatment related to the use thereof” (priority 2003, published 2007)

The molecules below were run against MCH receptor (Homo sapiens, UniProt Q99705) (assay: High throughput functional screening FLIPR/FDSS6000: inhibition of MCH-evoked intracellular Ca2+ changes). Settings: class by percent of control at 10^-7 M or IC50.
Assay type: cell-based
Outline: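 Seed cells the day before, then load them with Fluo4-AM for one hour at 37° C and wash in HEPES-buffered HBSS, pH 7.4. Add compound for 3 min, then stimulate with 50 nM MCH. Monitor the calcium transient for 290 s.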

Row | Compound | class
1 | CN(C)c1nc(N[C@H]2CC[C@@H](CNC(=S)Nc3cc(Br)ccc3Br)CC2)nc2ccccc12 [compound 719] | 3 (Class 3: The value of percent of control at 10^−7 M was more than 60% or the value of IC50 was more than 200 nM.)
2 | COc1ccc(OC)c(CCNC(=S)NC[C@H]2CC[C@@H](Nc3nc(N(C)C)c4ccccc4n3)CC2)c1 [compound 720] | 3 (Class 3: The value of percent of control at 10^−7 M was more than 60% or the value of IC50 was more than 200 nM.)
3 | CN(C)c1nc(N[C@H]2CC[C@@H](CNC(=S)Nc3ccccc3-c3ccccc3)CC2)nc2ccccc12 [compound 721] | 3 (Class 3: The value of percent of control at 10^−7 M was more than 60% or the value of IC50 was more than 200 nM.)
4 | CN(C)c1nc(N[C@H]2CC[C@@H](CNC(=S)Nc3cc([N+](=O)[O-])ccc3Cl)CC2)nc2ccccc12 [compound 722] | 3 (Class 3: The value of percent of control at 10^−7 M was more than 60% or the value of IC50 was more than 200 nM.)
5 | CN(C)c1nc(N[C@H]2CC[C@@H](CNC(=S)Nc3ccccc3C#N)CC2)nc2ccccc12 [compound 723] | 3 (Class 3: The value of percent of control at 10^−7 M was more than 60% or the value of IC50 was more than 200 nM.)
6 | CN(C)c1nc(N[C@H]2CC[C@@H](CNC(=S)NCc3ccccc3F)CC2)nc2ccccc12 [compound 724] | 3 (Class 3: The value of percent of control at 10^−7 M was more than 60% or the value of IC50 was more than 200 nM.)
7 | COc1ccc([N+](=O)[O-])cc1NC(=S)NC[C@H]1CC[C@@H](Nc2nc(N(C)C)c3ccccc3n2)CC1 [compound 725] | 2 (Class 2: The value of percent of control at 10^−7 M was from 40% to 60% or the value of IC50 was from 50 nM to 200 nM.)
8 | Cc1cc([N+](=O)[O-])ccc1NC(=S)NC[C@H]1CC[C@@H](Nc2nc(N(C)C)c3ccccc3n2)CC1 [compound 726] | 3 (Class 3: The value of percent of control at 10^−7 M was more than 60% or the value of IC50 was more than 200 nM.)
9 | Cc1ccccc1CNC(=S)NC[C@H]1CC[C@@H](Nc2nc(N(C)C)c3ccccc3n2)CC1 [compound 727] | 3 (Class 3: The value of percent of control at 10^−7 M was more than 60% or the value of IC50 was more than 200 nM.)
10 | COc1ccc(CNC(=S)NC[C@H]2CC[C@@H](Nc3nc(N(C)C)c4ccccc4n3)CC2)cc1OC [compound 728] | 3 (Class 3: The value of percent of control at 10^−7 M was more than 60% or the value of IC50 was more than 200 nM.)
11 | CN(C)c1nc(N[C@H]2CC[C@@H](CNC(=S)NCc3cccc(Cl)c3)CC2)nc2ccccc12 [compound 729] | 3 (Class 3: The value of percent of control at 10^−7 M was more than 60% or the value of IC50 was more than 200 nM.)
12 | CCOC(=O)c1cccc(NC(=S)NC[C@H]2CC[C@@H](Nc3nc(N(C)C)c4ccccc4n3)CC2)c1 [compound 730] | 3 (Class 3: The value of percent of control at 10^−7 M was more than 60% or the value of IC50 was more than 200 nM.)
13 | CCc1cccc(NC(=S)NC[C@H]2CC[C@@H](Nc3nc(N(C)C)c4ccccc4n3)CC2)c1 [compound 731] | 3 (Class 3: The value of percent of control at 10^−7 M was more than 60% or the value of IC50 was more than 200 nM.)
14 | CN(C)c1nc(N[C@H]2CC[C@@H](CNC(=S)NCc3cccc(F)c3)CC2)nc2ccccc12 [compound 732] | 3 (Class 3: The value of percent of control at 10^−7 M was more than 60% or the value of IC50 was more than 200 nM.)
15 | COc1cccc(CNC(=S)NC[C@H]2CC[C@@H](Nc3nc(N(C)C)c4ccccc4n3)CC2)c1 [compound 733] | 3 (Class 3: The value of percent of control at 10^−7 M was more than 60% or the value of IC50 was more than 200 nM.)
16 | Cc1cccc(CNC(=S)NC[C@H]2CC[C@@H](Nc3nc(N(C)C)c4ccccc4n3)CC2)c1 [compound 734] | 3 (Class 3: The value of percent of control at 10^−7 M was more than 60% or the value of IC50 was more than 200 nM.)
17 | CN(C)c1nc(N[C@H]2CC[C@@H](CNC(=S)Nc3ccc(Br)c(Cl)c3)CC2)nc2ccccc12 [compound 735] | 3 (Class 3: The value of percent of control at 10^−7 M was more than 60% or the value of IC50 was more than 200 nM.)
18 | Cc1cc(NC(=S)NC[C@H]2CC[C@@H](Nc3nc(N(C)C)c4ccccc4n3)CC2)ccc1Br [compound 736] | 3 (Class 3: The value of percent of control at 10^−7 M was more than 60% or the value of IC50 was more than 200 nM.)
19 | CN(C)c1nc(N[C@H]2CC[C@@H](CNC(=S)Nc3ccc(Cl)cc3C(F)(F)F)CC2)nc2ccccc12 [compound 737] | 3 (Class 3: The value of percent of control at 10^−7 M was more than 60% or the value of IC50 was more than 200 nM.)
20 | CCCCCCCCCCc1ccc(NC(=S)NC[C@H]2CC[C@@H](Nc3nc(N(C)C)c4ccccc4n3)CC2)cc1 [compound 738] | 3 (Class 3: The value of percent of control at 10^−7 M was more than 60% or the value of IC50 was more than 200 nM.)

Row | Compound | class
21 | Cc1cc(F)ccc1NC(=S)NC[C@H]1CC[C@@H](Nc2nc(N(C)C)c3ccccc3n2)CC1 [compound 739] | 3 (Class 3: The value of percent of control at 10^−7 M was more than 60% or the value of IC50 was more than 200 nM.)
22 | CN(C)c1nc(N[C@H]2CC[C@@H](CNC(=S)Nc3ccc(Oc4ccc([N+](=O)[O-])cc4)cc3)CC2)nc2ccccc12 [compound 740] | 3 (Class 3: The value of percent of control at 10^−7 M was more than 60% or the value of IC50 was more than 200 nM.)
23 | CN(C)c1nc(N[C@H]2CC[C@@H](CNC(=S)Nc3ccc(Sc4ccc([N+](=O)[O-])cc4)cc3)CC2)nc2ccccc12 [compound 741] | 3 (Class 3: The value of percent of control at 10^−7 M was more than 60% or the value of IC50 was more than 200 nM.)
24 | CN(C)c1nc(N[C@H]2CC[C@@H](CNC(=S)Nc3ccc(S(N)(=O)=O)cc3)CC2)nc2ccccc12 [compound 742] | 3 (Class 3: The value of percent of control at 10^−7 M was more than 60% or the value of IC50 was more than 200 nM.)
25 | COc1ccc(NC(=S)NC[C@H]2CC[C@@H](Nc3nc(N(C)C)c4ccccc4n3)CC2)c(C)c1 [compound 743] | 2 (Class 2: The value of percent of control at 10^−7 M was from 40% to 60% or the value of IC50 was from 50 nM to 200 nM.)
26 | Cc1ccc(CCNC(=S)NC[C@H]2CC[C@@H](Nc3nc(N(C)C)c4ccccc4n3)CC2)cc1 [compound 744] | 3 (Class 3: The value of percent of control at 10^−7 M was more than 60% or the value of IC50 was more than 200 nM.)
27 | CN(C)c1nc(N[C@H]2CC[C@@H](CNC(=S)Nc3ccc(Oc4ccccc4)cc3)CC2)nc2ccccc12 [compound 745] | 3 (Class 3: The value of percent of control at 10^−7 M was more than 60% or the value of IC50 was more than 200 nM.)
28 | COc1cc(OC)c(NC(=S)NC[C@H]2CC[C@@H](Nc3nc(N(C)C)c4ccccc4n3)CC2)cc1Cl [compound 746] | 3 (Class 3: The value of percent of control at 10^−7 M was more than 60% or the value of IC50 was more than 200 nM.)
29 | CN(C)c1nc(N[C@H]2CC[C@@H](CNC(=S)Nc3ccc4c(c3)CCC4)CC2)nc2ccccc12 [compound 747] | 3 (Class 3: The value of percent of control at 10^−7 M was more than 60% or the value of IC50 was more than 200 nM.)
30 | CN(C)c1nc(N[C@H]2CC[C@@H](CNC(=S)NC3CCCCCC3)CC2)nc2ccccc12 [compound 748] | 3 (Class 3: The value of percent of control at 10^−7 M was more than 60% or the value of IC50 was more than 200 nM.)
31 | C[C@@H](NC(=S)NC[C@H]1CC[C@@H](Nc2nc(N(C)C)c3ccccc3n2)CC1)c1ccccc1 [compound 749] | 3 (Class 3: The value of percent of control at 10^−7 M was more than 60% or the value of IC50 was more than 200 nM.)
32 | CCCCOC(=O)c1ccccc1NC(=O)NC[C@H]1CC[C@@H](Nc2nc(N(C)C)c3ccccc3n2)CC1 [compound 750] | 3 (Class 3: The value of percent of control at 10^−7 M was more than 60% or the value of IC50 was more than 200 nM.)
33 | COC(=O)c1cc(NC(=O)NC[C@H]2CC[C@@H](Nc3nc(N(C)C)c4ccccc4n3)CC2)cc(C(=O)OC)c1 [compound 751] | 3 (Class 3: The value of percent of control at 10^−7 M was more than 60% or the value of IC50 was more than 200 nM.)
34 | CN(C)c1nc(N[C@H]2CC[C@@H](CNC(=O)Nc3ccc(OC(F)(F)F)cc3)CC2)nc2ccccc12 [compound 752] | 3 (Class 3: The value of percent of control at 10^−7 M was more than 60% or the value of IC50 was more than 200 nM.)
35 | Cc1cc(Br)cc(C)c1NC(=O)NC[C@H]1CC[C@@H](Nc2nc(N(C)C)c3ccccc3n2)CC1 [compound 753, N-(4-bromo-2,6-dimethylphenyl)-N′-[(cis-4-{[4-(dimethylamino)quinazolin-2-yl]amino}cyclohexyl)methyl]urea] | 1 (Class 1: The value of percent of control at 10^−7 M was less than 40% or the value of IC50 was less than 50 nM.)
36 | Cc1cc(Br)ccc1NC(=O)NC[C@H]1CC[C@@H](Nc2nc(N(C)C)c3ccccc3n2)CC1 [compound 754] | 2 (Class 2: The value of percent of control at 10^−7 M was from 40% to 60% or the value of IC50 was from 50 nM to 200 nM.)
37 | CN(C)c1nc(N[C@H]2CC[C@@H](CNC(=O)Nc3ccc4c(c3)C(F)(F)OC(F)(F)O4)CC2)nc2ccccc12 [compound 755, N-[(cis-4-{[4-(dimethylamino)quinazolin-2-yl]amino}-cyclohexyl)methyl]-N′-(2,2,4,4,-tetrafluoro-4H-1,3-benzodioxin-6-yl)urea] | 3 (Class 3: The value of percent of control at 10^−7 M was more than 60% or the value of IC50 was more than 200 nM.)
38 | CN(C)c1nc(N[C@H]2CC[C@@H](CNC(=O)NCCc3cccs3)CC2)nc2ccccc12 [compound 757] | 3 (Class 3: The value of percent of control at 10^−7 M was more than 60% or the value of IC50 was more than 200 nM.)
39 | CN(C)c1nc(N[C@H]2CC[C@@H](CNC(=O)Nc3ccc4c(c3)OCCO4)CC2)nc2ccccc12 [compound 758] | 3 (Class 3: The value of percent of control at 10^−7 M was more than 60% or the value of IC50 was more than 200 nM.)
